Measurements taken from patent US20070275961A1, “Triazolo ' 1, 5-A ! Pyrimidines and Their Use in Medicine” (VERNALIS (CAMBRIDGE) LIMITED., priority 2003, published 2007).
Read-outs that look alike come from different tables or passages of the source.

Columns and labels:
Type in all cases: biochemical
[1] = target: CDK2 enzyme, complexed with cyclin A (Homo sapiens, UniProt P24941); assay: CDK2 cyclin dependent kinase assay, phosphorylation of synthetic peptide […] (33P-ATP filtration); conditions: 0.1 mM ATP
PDK1 enzyme = target: T1, PDK1 enzyme (Homo sapiens, UniProt O15530); assay: PDK1 3'-phosphoinositide-dependent kinase assay, phosphorylation of synthetic peptide (33P-ATP filtration); conditions: 0.01 mM ATP, read-out: PDK1 IC50
T1 sequence (O15530 1-556): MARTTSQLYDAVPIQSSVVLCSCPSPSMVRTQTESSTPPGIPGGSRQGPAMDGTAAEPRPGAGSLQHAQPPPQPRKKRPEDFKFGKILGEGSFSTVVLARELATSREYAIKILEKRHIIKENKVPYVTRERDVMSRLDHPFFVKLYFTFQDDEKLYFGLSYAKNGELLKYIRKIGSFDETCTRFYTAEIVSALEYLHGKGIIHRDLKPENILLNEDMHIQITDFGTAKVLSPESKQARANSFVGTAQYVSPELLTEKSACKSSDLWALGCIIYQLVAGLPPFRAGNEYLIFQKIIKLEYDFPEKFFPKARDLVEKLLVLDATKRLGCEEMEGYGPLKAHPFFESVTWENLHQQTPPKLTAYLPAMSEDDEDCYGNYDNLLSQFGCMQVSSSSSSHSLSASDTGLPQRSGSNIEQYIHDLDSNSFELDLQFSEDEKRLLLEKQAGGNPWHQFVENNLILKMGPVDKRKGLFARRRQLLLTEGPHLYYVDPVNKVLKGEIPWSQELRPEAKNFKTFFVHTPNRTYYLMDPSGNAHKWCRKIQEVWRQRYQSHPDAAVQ
Procedure, shortened: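 Radiometric peptide phosphorylation by PDK1 with inhibitor, 60 min at 30 °C, using 0.01 mM ATP plus 33P-γ-ATP, 0.075 mM peptide, 7.5 mM Mg acetate in Tris-HCl pH 7.5. Phosphoric acid stopped reaction; phosphorylated peptide captured on filter plates and counted by scintillation.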

Chk1 = target: T2, Chk1 (Homo sapiens, UniProt O14757); assay: Chk1 kinase assay, phosphorylation of Chktide (33P-ATP filtration); conditions: 0.01 mM ATP, read-out: Chk1 IC50
T2 sequence (O14757 1-476): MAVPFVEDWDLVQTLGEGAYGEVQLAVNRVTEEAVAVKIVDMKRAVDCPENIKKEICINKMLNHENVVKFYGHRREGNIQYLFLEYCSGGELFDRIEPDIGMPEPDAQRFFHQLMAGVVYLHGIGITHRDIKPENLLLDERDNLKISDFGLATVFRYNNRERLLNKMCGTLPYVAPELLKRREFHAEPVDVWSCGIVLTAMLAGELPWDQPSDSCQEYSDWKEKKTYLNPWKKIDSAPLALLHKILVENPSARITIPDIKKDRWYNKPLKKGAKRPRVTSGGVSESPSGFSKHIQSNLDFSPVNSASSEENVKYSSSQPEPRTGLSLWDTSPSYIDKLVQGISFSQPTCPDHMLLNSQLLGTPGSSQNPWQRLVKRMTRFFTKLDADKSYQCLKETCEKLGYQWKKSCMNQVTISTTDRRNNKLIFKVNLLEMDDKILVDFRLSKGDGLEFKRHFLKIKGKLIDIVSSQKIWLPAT
Procedure, shortened: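 GST-Chk1 (11 nM) with inhibitor, 30 μM Chktide peptide, 0.01 mM ATP plus 33P-γ-ATP in 50 mM Hepes pH 7.5 with 0.1 mg/ml BSA, 40 min at 30° C. Stopped with phosphoric acid; phosphorylated peptide captured on filter plates and scintillation-counted.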

SMILES	IC50 ([1]; Table 2) [µM]	IC50 (PDK1 enzyme; Table 2) [µM]	IC50 (Chk1; Table 2) [µM]	IC50 ([1]; Table 1) [µM]	IC50 (PDK1 enzyme; Table 1) [µM]	IC50 (Chk1; Table 1) [µM]	also measured
NS(=O)(=O)c1ccc(Nc2cc(NCc3ccccc3)nc3ncnn23)cc1 [Example 58]	13.6	> 200	> 200	–	–	–	–
Clc1cc(Nc2ccc3cn[nH]c3c2)n2ncnc2n1 [Example 48]	–	–	–	13.5	> 200	> 200	–
CCOc1cc(Nc2ccc(S(N)(=O)=O)cc2)n2ncnc2n1 [Example 62]	13	> 200	> 200	–	–	–	–
COc1ccc(OC)c(Cc2cc(Nc3ccc(C(N)=O)cc3)nc3ncnn23)c1 [Example 127]	–	–	–	–	–	–	IC50 ([1]; Table 3): > 200 µM; IC50 (PDK1 enzyme; Table 3): > 200 µM; IC50 (Chk1; Table 3): 106 µM
NS(=O)(=O)c1ccc(Nc2ccnc3ncnn23)cc1 [Example 30]	–	–	–	33	> 200	72	–
CS(=O)(=O)c1ccc(Nc2cc(N[C@H]3CC[C@H](N)CC3)nc3ncnn23)cc1 [Example 84]	0.25	107	> 200	–	–	–	–
NS(=O)(=O)c1ccc(Nc2cc(N3CCC(O)CC3)nc3ncnn23)cc1 [Example 19]	–	–	–	0.99	> 200	> 200	–
CCN(CC)c1cc(Nc2ccc(S(=O)(=O)N3CCC(O)CC3)cc2)n2ncnc2n1 [Example 72]	0.38	> 200	> 200	–	–	–	–
Clc1cccc(-c2cc(Nc3ccc4c(c3)OCO4)n3ncnc3n2)c1 [Example 33]	–	–	–	29	> 200	23.9	–
COc1ccc(Nc2cc(Cl)nc3ncnn23)cn1 [Example 42]	–	–	–	11.8	> 200	> 200	–
OCCc1ccc(Nc2cc(-c3cccc(F)c3)n3ncnc3n2)cc1 [Example 111]	–	–	–	–	–	–	IC50 ([1]; Table 3): > 200 µM; IC50 (PDK1 enzyme; Table 3): 52.2 µM; IC50 (Chk1; Table 3): 9.57 µM
CCOC(=O)Cc1ccc(Nc2cc(-c3cccc(F)c3)n3ncnc3n2)cc1 [Example 133]	–	–	–	–	–	–	IC50 ([1]; Table 3): > 200 µM; IC50 (PDK1 enzyme; Table 3): 2.25 µM; IC50 (Chk1; Table 3): 8.84 µM
NC(=O)COc1cccc(-c2cc(Nc3ccc(C(N)=O)cc3)nc3ncnn23)c1 [Example 157]	–	–	–	–	–	–	IC50 ([1]; Table 4): 6.56 µM; IC50 (PDK1 enzyme; Table 4): 4.82 µM; IC50 (Chk1; Table 4): 6.05 µM
CS(=O)(=O)c1ccc(CNc2cc(Cl)nc3ncnn23)cc1 [Example 95]	76.2	> 200	> 200	–	–	–	–
CS(=O)(=O)c1ccc(Nc2cc(N)nc3ncnn23)cc1 [Example 97]	20.3	> 200	> 200	–	–	–	–
NC(=O)c1cccc(Nc2cc(-c3cccc(F)c3)n3ncnc3n2)c1 [Example 134]	–	–	–	–	–	–	IC50 ([1]; Table 3): > 200 µM; IC50 (PDK1 enzyme; Table 3): 8.09 µM; IC50 (Chk1; Table 3): 23.2 µM
NC(=O)c1sccc1Nc1cc(Cl)nc2ncnn12 [Example 47]	–	–	–	> 200	> 200	> 200	–
NC(=O)c1ccc(Nc2cc(-c3ccccc3)n3ncnc3n2)cc1 [Example 116]	–	–	–	–	–	–	IC50 ([1]; Table 3): 97.5 µM; IC50 (PDK1 enzyme; Table 3): 5.11 µM; IC50 (Chk1; Table 3): 9.82 µM
CCN(CC)c1cc(Nc2ccc(S(=O)(=O)N(C)C)cc2)n2ncnc2n1 [Example 71]	0.59	> 200	> 200	–	–	–	–
NC(=O)c1ccc(Nc2cc(Cl)nc3ncnn23)cc1 [Example 49]	–	–	–	24.1	> 200	> 200	–
O[C@H]1CC[C@H](Nc2cc(Cl)nc3ncnn23)CC1 [Example 43]	–	–	–	> 200	> 200	> 200	–
CC(C)COc1cc(Nc2ccc(S(N)(=O)=O)cc2)n2ncnc2n1 [Example 14]	–	–	–	1.85	> 200	> 200	–
N#Cc1ccc(Nc2cc(-c3cccc(F)c3)n3ncnc3n2)cc1 [Example 112]	–	–	–	–	–	–	IC50 ([1]; Table 3): 119 µM; IC50 (PDK1 enzyme; Table 3): 51.6 µM; IC50 (Chk1; Table 3): > 200 µM
NS(=O)(=O)c1ccc(Nc2cc(Nc3cccc(Cl)c3)nc3ncnn23)cc1 [Example 35]	–	–	–	1.72	48	40.5	–

SMILES	IC50 ([1]; Table 2) [µM]	IC50 (PDK1 enzyme; Table 2) [µM]	IC50 (Chk1; Table 2) [µM]	IC50 ([1]; Table 1) [µM]	IC50 (PDK1 enzyme; Table 1) [µM]	IC50 (Chk1; Table 1) [µM]	also measured
COc1ccc(C)cc1-c1cc(Nc2ccc(C(N)=O)cc2)nc2ncnn12 [Example 135]	–	–	–	–	–	–	IC50 ([1]; Table 3): > 200 µM; IC50 (PDK1 enzyme; Table 3): 10.7 µM; IC50 (Chk1; Table 3): 107 µM
CS(=O)(=O)c1ccc(Nc2cc(Cl)nc3ncnn23)cc1 [Example 18]	–	–	–	0.82	> 200	> 200	–
NS(=O)(=O)c1ccc(Nc2cc(-c3cccc(F)c3)n3ncnc3n2)cc1 [Example 118]	–	–	–	–	–	–	IC50 ([1]; Table 3): 116 µM; IC50 (PDK1 enzyme; Table 3): 6.28 µM; IC50 (Chk1; Table 3): 1.54 µM
C[Si](C)(C)CCOCn1ncc2ccc(Nc3cc(Cl)nc4ncnn34)cc21 [Example 61]	> 200	> 200	> 200	–	–	–	–
NS(=O)(=O)c1ccc(CNc2cc(OCC3CCCCC3)nc3ncnn23)cc1 [Example 57]	18.7	> 200	> 200	–	–	–	–
CCN(c1cc(Nc2ccc(S(C)(=O)=O)cc2)n2ncnc2n1)C(C)C [Example 85]	0.86	2.89	> 200	–	–	–	–
NS(=O)(=O)c1ccc(Nc2cc(NC3CCCC3)nc3ncnn23)cc1 [Example 11]	–	–	–	0.55	> 200	> 200	–
CCN(CC)c1cc(Nc2ccc(C(N)=O)cc2)n2ncnc2n1 [Example 92]	1.49	> 200	> 200	–	–	–	–
CCN(CC)CCNC(=O)c1ccc(Nc2cc(-c3cccc(C)c3)n3ncnc3n2)cc1 [Example 105]	–	–	–	–	–	–	IC50 ([1]; Table 3): > 200 µM; IC50 (PDK1 enzyme; Table 3): 6.1 µM; IC50 (Chk1; Table 3): 5.45 µM
CN(C)c1ccc(Nc2cc(Nc3ccc(S(C)(=O)=O)cc3)n3ncnc3n2)cc1 [Example 91]	4.83	> 200	14.2	–	–	–	–
COc1cc(Nc2cc(Cl)nc3ncnn23)c(Cl)cc1C(=O)O [Example 90]	102	> 200	> 200	–	–	–	–
NS(=O)(=O)c1ccc(Nc2cc(N3CCCC(O)C3)nc3ncnn23)cc1 (stereo not drawn) [Example 67]	2.3	> 200	> 200	–	–	–	–
CS(=O)(=O)c1ccc(CNc2cc(N[C@H]3CC[C@H](N)CC3)nc3ncnn23)cc1 [Example 100]	2.95	> 200	> 200	–	–	–	–
CC(C)N(CCO)c1cc(Nc2ccc(S(C)(=O)=O)cc2)n2ncnc2n1 [Example 87]	1.49	> 200	> 200	–	–	–	–
Cc1cccc(-c2cc(Nc3ccc(CCO)cc3)nc3ncnn23)c1 [Example 107]	–	–	–	–	–	–	IC50 ([1]; Table 3): > 200 µM; IC50 (PDK1 enzyme; Table 3): 14.7 µM; IC50 (Chk1; Table 3): 42.2 µM
NS(=O)(=O)c1ccc(Nc2cc(-c3cccc(C(=O)O)c3)nc3ncnn23)cc1 [Example 27]	–	–	–	14.3	> 200	> 200	–
NC(=O)c1ccc(Nc2cc(-c3cccc(F)c3)nc3ncnn23)cc1 [Example 45]	–	–	–	12.3	> 200	> 200	–
C[C@H]1CCCC(Oc2cc(Nc3ccc(S(N)(=O)=O)cc3)n3ncnc3n2)C1 (stereo partly drawn) [Example 5]	–	–	–	6.4	> 200	> 200	–
CCN(CC)CCNC(=O)c1ccc(Nc2cc(-c3ccccc3)n3ncnc3n2)cc1 [Example 121]	–	–	–	–	–	–	IC50 ([1]; Table 3): > 200 µM; IC50 (PDK1 enzyme; Table 3): 15.4 µM; IC50 (Chk1; Table 3): 2.25 µM
Cc1cccc(-c2cc(Nc3ccc(C(N)=O)cc3)nc3ncnn23)c1 [Example 104]	–	–	–	–	–	–	IC50 ([1]; Table 3): > 200 µM; IC50 (PDK1 enzyme; Table 3): 4.08 µM; IC50 (Chk1; Table 3): 14.9 µM
Cc1cc(Nc2ccc(C(N)=O)cc2)nc2ncnn12 [Example 114]	–	–	–	–	–	–	IC50 ([1]; Table 3): > 200 µM; IC50 (PDK1 enzyme; Table 3): > 200 µM; IC50 (Chk1; Table 3): 6.42 µM
CCN(CC)CCNC(=O)c1ccc(Nc2cc(C(C)C)n3ncnc3n2)cc1 [Example 122]	–	–	–	–	–	–	IC50 ([1]; Table 3): > 200 µM; IC50 (PDK1 enzyme; Table 3): > 200 µM; IC50 (Chk1; Table 3): 22.9 µM
CCOC(=O)c1ccc(Nc2cc(Cl)nc3ncnn23)cc1 [Example 53]	–	–	–	> 200	> 200	> 200	–
